Reference: a melting point compilation (Tetko et al.; mined from patent text by program, amines drawn as free bases though some values may be those of a salt)

Row | SMILES | melting point [°C]
1 | O=[N+]([O-])c1ccc(-c2cccnc2)cc1 | 145 to 148
2 | CCOC(=O)CCc1ccc(CBr)cc1 | 132
3 | COc1ccc2c(c1F)OCc1c(C(F)(F)F)nn(-c3ccc(S(N)(=O)=O)cc3)c1-2 | 133 to 138
4 | Cn1nc(-c2c(F)cccc2Cl)nc1-c1ccc(Cc2ccc(Cl)c(Cl)c2)c(Cl)c1 | 179 to 185
5 | NC(=O)c1ncn2c(-c3ccc(Cl)c(Cl)c3)ccnc12 | 302 to 304
6 | N#Cc1cc2cccnc2nc1O | 300
7 | Cc1ccc(OCCOc2ccc(C)cc2)cc1 | 134
8 | CCCc1nsc(Oc2cccc(NC(=O)OC(C)C)c2)n1 | 64
9 | O=Cc1ccc(Cl)c(Cl)c1O | 97
10 | COc1cccc(OC)c1-c1nc2cnncc2[nH]1 | 207
11 | O=C1OC(CCl)CN1c1ccc(Cl)cc1 (stereo not drawn) | 119 to 120
12 | CCC(CC)n1cc(C)nc(Nc2c(C)cc(C)cc2C)c1=O | 109
13 | COC(C)(C)CN1CCC(CNC(=O)c2cc(Cl)c(N)n3cc(C)nc23)CC1 | 211
14 | CN1c2nnnn2-c2ccc(C(O)(c3ccc(Cl)cc3)c3cncn3C)cc2C1c1cccc(Cl)c1 (stereo not drawn) | 235
15 | CCOC(=O)c1c(N)sc(-c2ccc([N+](=O)[O-])cc2)c1C | 117 to 119
16 | CCOC(=O)c1sc(Cn2cc(Cl)cnc2=O)nc1C | 169 to 171
17 | OC1CSC(Oc2ccc(-c3ccoc3)cc2F)C(O)C1O (stereo not drawn) | 155
18 | CC(=O)OCc1c(C(=O)C(=O)O)c2cc(-c3ccc(OC(F)(F)F)cc3)ccc2n1Cc1ccccc1 | 85 to 86
19 | CCC(=O)c1ccc(C#C[Si](C)(C)C)cc1 | 36 to 37
20 | CCCCc1nn2ccccc2c1Cc1ccc(Br)cc1 | < 50
21 | C#Cc1ccc2c(C(=O)c3ccc(OCCN4CCCCC4)cc3)c(-c3ccc(O)cc3)sc2c1 | 97 to 100
22 | O=[N+]([O-])c1ccc(Br)c2nsnc12 | 216 to 218
23 | CSc1ccc2c(c1)C(=O)C(C)(C)C(=O)N2 | 152
24 | CCCCCCCCCCN(C[C@H]1CC[C@H](CN(CCCCCCCCCC)C(=O)Nc2ccc(N(C)C)cc2)CC1)C(=O)Nc1ccc(N(C)C)cc1 | 125 to 127

Row | SMILES | melting point [°C]
25 | COCc1cc(O)nc(C)n1 | 168 to 170
26 | Cn1c(Oc2ccc(-n3c4ncccc4n4ccnc34)cc2)nc2ccccc21 | 232 to 234
27 | C=CCN1CC(C)N(C(c2cccnc2)c2cccc(O)c2)CC1C (stereo not drawn) | 115 to 118
28 | C=C(C)C(=O)OCCCc1cc(CCCOC(=O)C(=C)C)c2oc(=O)c(-c3ccc(OC(=O)C(=C)C)cc3)cc2c1 | 49
29 | Brc1ccc(Cc2ccc(Br)cc2)cc1 | 62 to 62.5
30 | CCCCCCCCCCCCCCCc1cccc(OCC)c1C1NC(=O)NC(C)=C1C(=O)OCC (stereo not drawn) | 99 to 100
31 | COc1ccccc1N1CCN(C[C@@H](O)CN)CC1 | 76 to 80
32 | COc1ccc(CN(C)CCc2ccc(NC(=O)c3cccc4c(=O)c5c(OC)c(OC)c(OC)cc5[nH]c34)cc2)cc1OC | 158
33 | CNS(=O)(=O)CCc1ccc2[nH]cc(C3CCN(C)CC3)c2c1 | 156 to 158
34 | c1ccc(P(Cc2ccccc2-c2ccccc2CP(c2ccccc2)c2ccccc2)c2ccccc2)cc1 | 84 to 87
35 | CCN(CC)C(=O)COc1ccc(CCCOC(=O)NCC2CC2)c(Oc2ncc(C(F)(F)F)cc2Cl)c1 | 94 to 94.5
36 | CCOC(=O)Cc1ccc(OCCN2CCN(c3cc(Cl)nnc3Cl)CC2)cc1 | 128 to 130
37 | COC(=O)CCCC#Cc1cc(Cl)ccc1NS(=O)(=O)c1ccc2nc(C)sc2c1 | 103 to 106
38 | CCC(=O)c1c(OC)cccc1OC | 43 to 45
39 | CC#CCOc1cc(/C=C/C(=O)O)ccc1OC(F)F | 206 to 208
40 | CC12CC3OC3CC1CCC1C2CCC2(C)C(O)C(N3CCCC3)CC12 (stereo not drawn) | 156 to 160
41 | CCOC(=O)c1cn(CCNC(=O)OC(C)(C)C)c(Br)c1-c1cccc(F)c1 | 108 to 110
42 | CCCCCCCCCCCCCCCCSCC(CN=[N+]=[N-])NC(=O)OC(C)(C)C (stereo not drawn) | 63 to 64
43 | CS(=O)C1C=Nc2cc(Br)ccc2C1=O (stereo not drawn) | 255 to 256
44 | Cn1c(CNCC(C)(C)O)cc2cc(NC(=O)c3ccc(OC[C@@H]4CCCO4)cc3F)ccc21 | 159 to 160
45 | CC(C)[C@H](NC(=O)N(C)Cc1csc(C2CCCC2)n1)C(=O)N[C@@H](Cc1ccccc1)C[C@H](O)[C@H](Cc1ccccc1)NC(=O)OCc1cncs1 | 70 to 71
46 | COc1ccc(CN2CCC(c3ccc(-c4cccc(N)n4)cc3)CC2)cc1OC | 150 to 165
47 | Fc1ccc(-c2ccc3[nH]ccc3c2)cc1 | 71 to 74
48 | Cc1nc(-c2cc(C)c(OCCCc3cc(C(F)(F)F)no3)c(C)c2)no1 | 62 to 64.5

More lines, now with the values ahead:

Row | melting point [°C] | SMILES
49 | 227 to 230 | Cc1cccc2cc3c(=O)n(CC(F)(F)F)cc(C(=O)NCCN(C)C)c3nc12
50 | 166 to 167 | Clc1ccc(C2Cc3cnc(Nc4ccc(CCN5CCOCC5)cc4)nc3-c3ccccc32)cc1Cl (stereo not drawn)
51 | 175 | CC(=O)Nc1cc(F)ccc1C(=O)NCCN1CCC(O)(c2ccc(Cl)cc2)CC1
52 | 116 to 117 | c1ccc(Sc2ccc(-c3ccc(Sc4ccccc4)cc3)cc2)cc1
53 | 198 to 200 | CNCC(=O)N1N=C(c2ccc(N)cc2)c2cc3c(cc2CC1C)OCO3 (stereo not drawn)
54 | 169 to 170 | CCN(CC)c1cccc2nc3n(c12)CC(=O)CCN3c1ccc(Cl)cc1Cl
55 | 78 to 79 | CC(C)(Cc1ccccc1)Oc1ccc([N+](=O)[O-])cc1
56 | 146 to 148 | CC(C)C1(C(C)C)C(=O)N=C2c3ccccc3C(=O)N21
57 | 54 to 56 | CC(COc1ccc(CC2SC(=O)NC2=O)cc1)N1CC(COc2ccccc2)OC1=O (stereo not drawn)
58 | 158 to 159 | CC(C)(C)OC(=O)NCCCCn1c(-c2ccccc2)nc2cnc3ccccc3c21
59 | 64 to 66 | CCN(CC)CCNC(=O)c1cccc2cc3cccc(I)c3nc12
60 | 85 to 86 | O=Cc1cn(Cc2ccccc2)nc1OCc1ccccc1
61 | 42 to 43 | C=CCC12CCC(c3ccccc31)c1ccccc12
62 | 94 to 95 | CNC(=O)C(=O)c1ccccc1Oc1ccccc1
63 | 151 to 153 | CC1(c2ccccc2)OCC(=O)N(CCCN2C(=O)c3ccccc3C2=O)c2ccc(Cl)cc21 (stereo not drawn)
64 | 231 to 232 | COC(=O)c1ccc(Nc2ccc(C#N)cc2NC(C)=O)cc1
65 | 152 to 155 | CCC(=O)Nc1c(C(=O)c2cccc(C)c2)[nH]c2cc(Cl)ccc12
66 | 180 to 182 | O=C(Cl)c1ccc(S(=O)(=O)NC(=O)c2ccccc2)cc1
67 | 132 | CC(C)(C)OC(=O)N1C(=O)[C@H](O)[C@@H]1c1ccccc1
68 | 178 | O=C(NC(=O)C(c1ccccc1)c1ccccc1)C1CC1
69 | 170 to 171 | CCOc1cc(-c2ccccc2)nc2nn(C)cc12
70 | 90 to 91 | COC(=O)O[C@@H]1[C@@H](c2ccccc2)Nc2c(ccn3c(C)c(C)nc23)[C@H]1OC
71 | 244 to 245 | Cc1oc(-c2ccccc2)nc1C(=O)COc1ccc(C=C2SC(=O)NC2=O)cc1
72 | 196 to 197 | CCOC(=O)c1ccccc1-n1c(=O)[nH]c2ccccc2c1=O
73 | 117 to 118 | CC(C(=O)O)c1ccc2c(c1)C(=O)CC(C(C)(C)C)O2 (stereo not drawn)

Row | melting point [°C] | SMILES
74 | 95 to 100 | COc1cc2c(cc1OC)C(Oc1ccccc1)CN(CCCOc1ccccc1)CC2 (stereo not drawn)
75 | 233 to 234 | CCNC(=O)c1cccc(F)c1Nc1nc(Cl)ncc1Cl
76 | 131 to 132 | O=C(CN1CCc2c([nH]c3ccccc23)C1c1ccccc1)OCc1ccccc1 (stereo not drawn)
77 | 53 to 54 | CN(C)CCCCCCOc1ccc(CC(=O)c2ccccc2)cc1
78 | 209 to 210 | CNC(=O)c1cc(Cl)cc(Cl)c1NC(=O)c1cc(Br)nn1-c1ccccc1Cl
79 | 89 to 97 | COC(=O)c1cccc(CN2C(=O)C3(COc4cc5c(cc43)OCCO5)c3ccccc32)c1 (stereo not drawn)
80 | 188 to 189 | O=C(O)c1cccc2c1CCc1ccccc1C2=O
81 | 210 to 212 | CN(CCCNC(=O)c1cccc2nc3ccc(Cl)cc3nc12)CCCNC(=O)c1cccc2nc3ccc(Cl)cc3nc12
82 | 121 to 125 | CN(C)CC(C(O)c1ccc(N)cc1)N1CCC(Cc2ccccc2)CC1 (stereo not drawn)
83 | 104 to 106 | Cc1cn(N)c2ccc(OCc3ccccc3)cc12
84 | 178 to 179 | CCn1nc2c(N)nc3cc(OS(=O)(=O)C(F)(F)F)ccc3c2c1CCc1ccccc1
85 | 314 to 316 | NS(=O)(=O)c1cc2[nH]c(-c3ccccc3)nc2cc1Cl
86 | 127 to 129 | CC(=O)Oc1coc(-c2cccc(N)c2)cc1=O
87 | 184 to 185 | COc1ccc(C(=O)N2c3ccccc3C(n3c4ccccc4c4ccccc43)=CC2C)cc1OC (stereo not drawn)
88 | 167 to 169 | CC1(C)CC(=O)c2c(-c3cncs3)cn(-c3ccccn3)c2C1
89 | 195 to 196 | C#Cc1cccc(-n2c(=O)oc3ccc(-c4ccc(F)cc4F)cc3c2=O)c1
90 | 75 to 79 | C[C@@H](O)c1cc2cc(CN3CCOCC3)cc3c(=O)c(C(=O)NCc4ccc(Cl)cc4)cn1c23
91 | 121 to 122 | COC(=O)NC1(c2ccccc2)CCN(Cc2ccccc2)CC1
92 | 99 to 100 | O=[N+]([O-])c1ccccc1C(=C(Br)Br)c1ccc(F)cc1
93 | 84 | COc1ccccc1CC(=O)NCc1cccs1
94 | > 300 | CNC(=O)c1cccc(Nc2ncnc3[nH]cc(C(=O)c4ccccc4C)c23)c1
95 | 134 to 135 | COc1ccc(-c2cc(-c3ccccc3)[nH]c2C(=O)NCc2ccc(C(=O)Nc3ccccc3S)cc2)cc1
96 | 227 to 228 | O=C1c2ccc(O)cc2C(=O)C1c1ccc(O)cc1 (stereo not drawn)
97 | 180 to 181 | COc1ccc(C(=O)N2c3ccccc3[C@H](N(C)c3ccccc3)C[C@@H]2C)cc1OC (relative stereo)
98 | 225 to 226 | Cn1c(=O)nc(-c2ccccc2Cl)c2ccsc21
